Here are results for twelve molecules from PubChem BioAssay (NCI).

Test in all cases: NCI-60 cell line screen, 48 h
Assay [1] concerns CAKI-1 renal.
The test system of assay [2] is T-47D breast.
Assay [3] relates to 786-0 renal.
In assay [4] the test system is MCF7 breast.
Assay [5] concerns SF-268 CNS.
Assay [6] deals with KM12 colon.
Assay [7] concerns NCI/ADR-RES ovarian.
Assay [8] deals with OVCAR-4 ovarian.
The subject of assay [9] is HCT-116 colon.
Assay [10] relates to HT29 colon.
Assay [11] deals with SW-620 colon.
Assay [12] concerns K-562 leukemia.
Assay [13] deals with SNB-19 CNS.
In assay [14] the test system is IGROV1 ovarian.
Assay [15] deals with OVCAR-5 ovarian.
The subject of assay [16] is SK-OV-3 ovarian.
In assay [17] the test system is NCI-H226 lung.

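Method: 48-hour compound exposure of cells in 96-well plates, five concentrations, linear interpolation of endpoints. Definition used: TGI = concentration required for complete inhibition of growth.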 Some results are limits rather than exact numbers.

`COC(=O)C1=C(OC(=O)/C(=C/c2ccccc2)c2ccc(OC)cc2)C(C(=O)OC)[C@@]2(O)[C@@H](C(=O)OC)[C@H](C)C[C@@H]1[C@@H]2C(=O)OC` (some centres undefined): the TGI in [1], in assay [2], in assay [3], in assay [4], in [5] and in assay [6] was over 100 µM in each case. Besides, the TGI in assay [7], in assay [8], in assay [9], in assay [10], in assay [11] and in assay [12] was over 100 µM each time. Moreover, the TGI in [13], in [14], in assay [15], in assay [16] and in assay [17] was over 100 µM throughout.

On to `COc1cc2ccc(C(=O)NCCCNC(=O)c3ccc4cc(OC)c(OC)cc4c3)cc2cc1OC`, for which the TGI in assay [1], in [2], in assay [3], in assay [4], in assay [5] and in [6] was over 100 µM in each case. Besides, the TGI in [7], in assay [8], in assay [9], in [10], in assay [11] and in [12] was over 100 µM in each case. For the same molecule, the TGI in assay [13], in [14], in [15], in [16] and in [17] was over 100 µM each time.

Regarding `COc1cc2cc(C(=O)N3CC(COS(C)(=O)=O)c4ccc(NC(=O)OCc5ccccc5)cc43)[nH]c2c(OC)c1OC` (centres undefined), the TGI in assay [1], in assay [2], in assay [3], in assay [4], in assay [5] and in [6] was over 100 µM each time. Moreover, the TGI in assay [7], in assay [8], in [9], in [10], in assay [11] and in assay [12] was over 100 µM each time. Also, the TGI in assay [13], in assay [14], in [15], in assay [16] and in assay [17] was over 100 µM each time.

As for `COC(=O)[C@@H]1CS(=O)(=O)C(C(C)C)N1C(C)=O` (some centres undefined), the TGI in [1], in assay [2], in assay [3], in [4], in assay [5] and in assay [6] was over 100 µM each time. In addition, the TGI in assay [7], in assay [8], in assay [9], in [10], in [11] and in assay [12] was over 100 µM in each case. The TGI in assay [13], in assay [14], in assay [15], in assay [16] and in assay [17] was over 100 µM throughout.

In the case of `Cc1ccc(S(=O)(=O)N2C[C@@H]3CC[C@]4(CO[Si](C)(C)C(C)(C)C)N[C@@H](c5ccccc5)[C@H]2[C@H]34)cc1`, the TGI in assay [1] was over 100 µM; in assay [2], 52.6 µM; in assay [3], over 100 µM; in assay [4], over 100 µM; in assay [5], over 100 µM; in [6] it was over 100 µM. Also, the TGI in assay [7] is over 100 µM; in assay [8], over 100 µM; in assay [9] it was over 100 µM; in [10] it was 42.6 µM; in [11], over 100 µM; in assay [12], over 100 µM. The TGI is over 100 µM in [13]; over 100 µM in assay [14]; over 100 µM in [15]; over 100 µM in assay [16]; 57.1 µM in [17].

As to `NNC(=O)Nc1nc2ccc(NN)cc2[nH]1`, the TGI is over 100 µM in [1]; over 100 µM in [2]; over 100 µM in [3]; 82.5 µM in assay [4]; over 100 µM in assay [5]; 48.7 µM in assay [6]. Further, the TGI was over 100 µM in assay [7]; over 100 µM in [8]; over 100 µM in assay [9]; over 100 µM in assay [10]; 67.4 µM in assay [11]; 42.1 µM in assay [12]. Besides, the TGI is over 100 µM in assay [13]; over 100 µM in assay [14]; over 100 µM in assay [15]; over 100 µM in [16]; 89.8 µM in assay [17].

Regarding `N#CC1(C#N)C(C#N)(C#N)C1(C#N)C(N)=O`, the TGI in [1], in assay [2], in [3], in [4], in [5] and in [6] was over 100 µM each time. The TGI in assay [7], in [8], in [9], in assay [10], in assay [11] and in assay [12] was over 100 µM in each case. Further, the TGI in assay [13], in [14], in [15], in assay [16] and in assay [17] was over 100 µM each time.

As for `Cc1cccc2c(N)c3cccc(C(=O)NCC[N+](C)(C)Cc4ccc([N+](=O)[O-])s4)c3nc12`, the TGI in [1] was over 73.8 µM; in assay [2], over 67.6 µM; in [3] it was 27.8 µM; in assay [4], over 51.9 µM; in assay [5], 36.9 µM; in assay [6] it was over 54.3 µM. Also, the TGI was over 100 µM in assay [7]; 25.1 µM in assay [8]; over 100 µM in assay [9]; 23.6 µM in assay [10]; over 66.3 µM in [11]; 27.9 µM in assay [12]. For the same molecule, the TGI is 60.2 µM in assay [13]; 26 µM in assay [14]; over 61.2 µM in assay [15]; over 75.9 µM in [16]; 21.9 µM in assay [17].

`Cn1nc2ccc(Nc3cc(=O)[nH]c4ccc5nn(C)nc5c34)cc2n1`: the TGI in assay [1], in [2], in assay [3], in [4], in assay [5] and in [6] was over 100 µM throughout. Besides, the TGI in [7], in assay [8], in assay [9], in assay [10], in assay [11] and in [12] was over 100 µM throughout. Moreover, the TGI in [13], in assay [14], in [15], in [16] and in [17] was over 100 µM in each case.

Turning to `CCCC[C@@H](C)/C=C1\CN2CCC[C@H]2[C@@](C)(OCc2ccccc2)[C@@H]1O`, the TGI in assay [1] is over 50 µM; in assay [2], over 19.3 µM; in assay [3] it was over 50 µM; in assay [4] it was over 50 µM; in [5], over 50 µM; in assay [6], over 18.9 µM. The TGI in assay [7], in assay [8], in assay [9], in [10], in [11] and in [12] was over 50 µM throughout. Besides, the TGI in assay [13], in assay [14], in assay [15], in [16] and in [17] was over 50 µM in each case.

On to `O=C1CCCNn2c(nc3ncccc3c2=O)N1`, for which the TGI in assay [1], in assay [2], in assay [3], in [4], in assay [5] and in assay [6] was over 100 µM each time. Also, the TGI in assay [7], in assay [8], in assay [9], in [10], in [11] and in assay [12] was over 100 µM each time. Further, the TGI in assay [13], in assay [14], in assay [15], in [16] and in [17] was over 100 µM throughout.

Consider `O=C(/C(=C(/O)c1ccccc1)c1nc2ccccc2sc1=O)c1ccccc1`, for which the TGI is over 100 µM in assay [1]; over 100 µM in [2]; over 100 µM in assay [3]; 75.5 µM in assay [4]; over 100 µM in [5]; over 100 µM in assay [6]. The TGI is 74.4 µM in assay [7]; over 100 µM in assay [8]; over 100 µM in assay [9]; 72.3 µM in assay [10]; over 100 µM in assay [11]; 45 µM in assay [12]. The TGI is over 100 µM in assay [13]; over 100 µM in assay [14]; over 100 µM in assay [15]; 77.3 µM in assay [16]; 72.8 µM in assay [17].
